# In patent publication US9205073B2, “Method for treating virus infection using derivative of aniline” (CHINA MEDICAL UNIVERSITY, priority 2014, dated 2015):
row,melting point,SMILES
1,210 to 211 °C,CCOC(=O)C1=C(Nc2cccc(O)c2)OCC1=O
2,159.5 °C,CCOC(=O)C1=C(Nc2cccc(Cl)c2)OCC1=O
3,145.6 °C,CCOC(=O)C1=C(Nc2cc(OC)cc(OC)c2)OCC1=O
4,115 to 116 °C,CCOC(=O)C1=C(Nc2ccccc2)OCC1=O
